System: mice
Test: modified phenyl-p-quinone writhing assay in mice (analgesia)
Type: in vivo
Settings: Mus musculus, sc; male CD-1 mice; test compound s.c. at peak time before phenyl-p-quinone; calculated ED50 by linear regression; read-out: Analgesic Activity (Inhibition of Writhing ED5Ø (mg/kg, s.c.)) (converted)
Experimental: The 2,6-methanopyrrolo-3-benzazocines of this invention are useful as analgetics due to their ability to alleviate pain in mammals. The procedure employed to determine analgetic utility is a modification of the phenyl-p-quinone writhing assay in mice, a standard assay for analgesia [Proc. Soc. Exptl. Bio. Med., 95 729 (1957)]. In the modified procedure phenyl-p-benzoquinone (Eastman, 12.5 mg) is dissolved in 5 ml of 95% ethanol and the solution is diluted to a total volume of 100 ml with distilled water. The solution is administered to the subject mice […] at a dose of 10 ml per kg of body weight. A characteristic "writh", an inward rotation of one or more feet with twisting and turning of the trunk, drawing in of the abdominal wall, lordosis and arching of the back, is produced.
A total of 28 male mice (Charles River, CD-1), weighing 18 to 30 grams, are employed for a time response. The subject animals receive food and water ad libitum. Test compounds are dissolved in distilled water, or suspended in distilled water containing one drop of a suitable surfactant, such as Tween-80.
Four groups of five animals (20 animals) are given the test compound subcutaneously at 15, 30, 45 and 60 minutes prior to administration of the phenyl-p-quinone. Four control groups of 2 animals (8 animals) receive an equal volume of the vehicle. After the administration of the phenyl-p-quinone, the mice are placed separately in one liter beakers, and after five minutes, are observed for ten minutes. The number of writhes for each animal is recorded. The following formula is used to compute the percent inhibition: [formula]
The time period with the greatest percent of inhibition is considered the peak time. A dose range determination is generally reserved for those compounds which inhibit writhing by greater than 65-70% at the screening dose.
A dose range determination is run in the same manner as the time response except 10 animals per group are tested at the peak time of test drug activity. Fifty animals, 4 test drug groups, and a vehicle control are employed. Animals are dosed and tested in a randomized manner. A calculated ED₅₀, i.e., the dose at which 50% inhibition of writhing is produced, is determined by a computer linear regression analysis. The calculated subcutaneous (s.c.) dose effecting an approximately 50% inhibition of writhing (ED₅₀) in mice produced in this assay is as follows: […]

Row | SMILES | ED50 [mg/kg]
1 | CC1C2Cc3c(ccc4c3C(=O)C(=O)N4)C1(C)CCN2C (stereo not shown) [1,2,3,4,5,6-Hexahydro-3,6,12-trimethyl-2,6-methanopyrrolo[2,3-j][3]benzazocine-10,11(9H)-dione] | 24.3
2 | CC(C)=CCN1CCC2(C)c3cc(O)ccc3CC1C2C (stereo not shown) [pentazocine, reference compound] | 1.3
3 | CC1C2Cc3cc4c(cc3C1(C)CCN2C)NCC4 (stereo not shown) [1,2,3,4,5,6,9,10-Octahydro-3,6,12-trimethyl-2,6-methano-8H-pyrrolo[2,3-i][3]benzazocine] | 35.5
4 | CC1C2Cc3c(ccc4[nH]ccc34)C1(C)CCN2C (stereo not shown) [1,2,3,4,5,6-Hexahydro-3,6,12-trimethyl-2,6-methano-9H-pyrrolo[2,3-j][3]benzazocine] | 30.4
5 | CC1C2Cc3ccc4[nH]ccc4c3C1(C)CCN2C (stereo not shown) [1,2,3,4,5,6-hexahydro-3,6,12-trimethyl-2,6-methano-9H-pyrrolo[3,2-h][3]benzazocine] | 0.6
6 | CC1C2Cc3cc4cc[nH]c4cc3C1(C)CCN2C (stereo not shown) [1,2,3,4,5,6-Hexahydro-3,6,12-trimethyl-2,6-methano-8H-pyrrolo[2,3-i][3]benzazocine] | 29.5
7 | CC1C2Cc3cc4[nH]ccc4cc3C1(C)CCN2C (stereo not shown) [1,2,3,4,5,6-hexahydro-3,6,12-trimethyl-2,6-methano-10H-pyrrolo[3,2-i][3]benzazocine] | 1.8

Reference: patent publication EP0308913A2, “2,6-Methanopyrrolo-3-benzazocines, a process and intermediates for their preparation and their use as medicaments” (HOECHST-ROUSSEL PHARMACEUTICALS INCORPORATED, priority 1987, dated 1989)
